The target in assay [1] is recombinant human dopamine transporter expressed in CHO-K1 cells (Homo sapiens, UniProt Q01959).
Procedure: (§1) The concentrations of radioligand employed in the assays were at or below the KM for the monoamine substrates with their cognate transporters. Compounds were tested at 5 to 10 different concentrations in duplicate in order to obtain full inhibition curves.
Test compound and/or vehicle was preincubated with cells (4×10^5/ml) in modified Tris-HEPES buffer pH 7.1 for 20 minutes at 25° C. and 50 nM [^3H]Dopamine was then added for an additional 10 minute incubation period. A lysate was obtained from solubilized cells and the amount of tritium in the lysate was measured using a liquid scintillation counter to determine [^3H]Dopamine uptake. Reduction of [^3H]Dopamine uptake by 50 percent or more (≧50%) relative to 10 μM nomifensine indicates significant inhibitory activity.
In assay [2] the target is T1, dopamine uptake, rat reuptake transporter (synaptosomes from male Wistar rat striatum) (Rattus norvegicus, UniProt P23977).
T1 construct: synaptosomes isolated in a 0.32 M sucrose buffer from a male Wistar rat striatum; from tissue; host or cells: male Wistar rat striatum synaptosomes
The experiment in a line: Dopamine functional uptake assay for rat reuptake transporter (synaptosomes). Conditions: for IC50: rat synaptosomes, [3H]-dopamine uptake, read-out: Inhibition of monoamine uptake, Rat DA, IC50. In kind it is biochemical.
Procedure: as §1
Quantification of dopamine uptake was performed using synaptosomes isolated in a 0.32 M sucrose buffer from a male Wistar rat striatum. The uptake of radiolabelled dopamine by synaptosomes (20 μg of proteins/point) was allowed by incubating them for 15 minutes at 37° C. in the presence of test compounds and [^3H]-dopamine (0.1 μCi/point). The experiment was performed in a deep well.
Synaptosomes and [^3H]-dopamine were prepared in a Krebs buffer pH 7.4 containing 25 mM NaHCO3, 11 mM glucose and 50 μM ascorbic acid. This incubation buffer was oxygenated for 5 minutes before incubation. Basal control was incubated for 15 minutes at 4° C. in order to avoid any uptake. Following this incubation, the uptake was stopped by filtration through a unifilter 96-wells GFB Packard plate washed with Krebs buffer containing 25 mM NaHCO3in order to eliminate free [^3H]-dopamine. The radioactivity associated to the synaptosomes retained onto the unifilter corresponding to the uptake was then measured with a microplate scintillation counter (Topcount, Packard) using a scintillation fluid.

For assay [3], the target named is norepinephrine uptake, rat reuptake transporter (synaptosomes from male Wistar rat hypothalamus) (Rattus norvegicus, UniProt Q63380). Nature of the assay: Norepinephrine functional uptake assay for rat reuptake transporter (synaptosomes). The following applies: [3H]-norepinephrine uptake, read-out: Inhibition of monoamine uptake, Rat NE, IC50. In kind it is biochemical.
Chain of norepinephrine uptake, rat reuptake transporter (synaptosomes from male Wistar rat hypothalamus) (Q63380 1-617): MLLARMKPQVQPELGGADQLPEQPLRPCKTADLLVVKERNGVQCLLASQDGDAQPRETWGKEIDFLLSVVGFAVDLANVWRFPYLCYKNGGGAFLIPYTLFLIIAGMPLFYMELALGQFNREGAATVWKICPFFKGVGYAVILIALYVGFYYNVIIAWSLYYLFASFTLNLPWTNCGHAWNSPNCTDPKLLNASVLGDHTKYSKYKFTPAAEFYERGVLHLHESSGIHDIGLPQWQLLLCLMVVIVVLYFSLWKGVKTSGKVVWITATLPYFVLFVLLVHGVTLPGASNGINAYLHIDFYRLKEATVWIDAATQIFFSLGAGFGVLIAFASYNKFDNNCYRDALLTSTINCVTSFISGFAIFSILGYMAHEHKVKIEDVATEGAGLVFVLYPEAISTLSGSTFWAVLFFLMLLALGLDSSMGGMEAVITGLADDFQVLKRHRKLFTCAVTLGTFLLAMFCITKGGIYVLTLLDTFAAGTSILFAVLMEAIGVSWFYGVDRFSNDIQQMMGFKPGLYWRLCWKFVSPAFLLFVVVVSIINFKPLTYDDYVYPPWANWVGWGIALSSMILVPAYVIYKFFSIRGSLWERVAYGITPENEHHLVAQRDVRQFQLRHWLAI
Procedure: as §1
Quantification of norepinephrine uptake was performed using synaptosomes isolated in a 0.32 M sucrose buffer from a male Wistar rat hypothalamus. The uptake of radiolabelled norepinephrine by synaptosomes (100 μg of proteins/point) was allowed by incubating them for 20 minutes at 37° C. in presence of test compounds and [^3H]-norepinephrine (0.1 μCi/point). The experiment was performed in a deep well.
Synaptosomes and [^3H]-norepinephrine were prepared in a Krebs buffer pH 7.4 containing 25 mM NaHCO3, 11 mM glucose and 50 μM ascorbic acid. This incubation buffer was oxygenated for 5 minutes before incubation. Basal control was incubated for 20 minutes at 4° C. in order to avoid any uptake. Following this incubation, the uptake was stopped by filtration through a unifilter 96-wells GFB. Packard plate washed with Krebs buffer containing 25 mM NaHCO3 in order to eliminate the free [^3H]-norepinephrine. The radioactivity associated to the synaptosomes retained onto the unifilter corresponding to the uptake was then measured with a microplate scintillation counter (Topcount, Packard) using a scintillation fluid.

Assay [4] addresses 5-HT uptake, rat reuptake transporter (synaptosomes from male Wistar rat cortex) (Rattus norvegicus, UniProt P31652). Conditions: at a 10 μM concentration.
Procedure: as §1
Quantification of 5HT uptake was performed using synaptosomes isolated in a 0.32M sucrose buffer from a male Wistar rat cortex. The uptake of radiolabelled 5-HT by synaptosomes (100 μg of proteins/point) was allowed by incubating them in a well for 15 min at 37° C. in presence of test compounds and [^3H]5-hydroxytryptamine (0.1 μCi/point).
Synaptosomes and [^3H]5-hydroxytryptamine were prepared in a Krebs buffer pH 7.4 containing 25 mM NaHCO3, 11 mM mM glucose and 50 μM ascorbic acid. This incubation buffer was oxygenated during 5 minutes before incubation. Basal control was incubated for 15 minutes at 4° C. in order to avoid any uptake. […] The radioactivity associated to the synaptosomes retained on the unifilter corresponding to the uptake was then measured with a microplate scintillation counter (Topcount, Packard) using a scintillation fluid. Nonspecific binding was measured in the presence of an excess of cold, unlabeled ligand. […]

Here are results for 3 molecules from US20150196531A1, “Methods and Compositions For Treating Sleep-Related Breathing Disorders” (Sunovion Pharmaceuticals Inc., priority 2007, published 2015).

Each structure is given as a SMILES string.

For orientation: IC50 means the concentration at which inhibition is half-maximal.

T1 sequence (P23977 whole entry): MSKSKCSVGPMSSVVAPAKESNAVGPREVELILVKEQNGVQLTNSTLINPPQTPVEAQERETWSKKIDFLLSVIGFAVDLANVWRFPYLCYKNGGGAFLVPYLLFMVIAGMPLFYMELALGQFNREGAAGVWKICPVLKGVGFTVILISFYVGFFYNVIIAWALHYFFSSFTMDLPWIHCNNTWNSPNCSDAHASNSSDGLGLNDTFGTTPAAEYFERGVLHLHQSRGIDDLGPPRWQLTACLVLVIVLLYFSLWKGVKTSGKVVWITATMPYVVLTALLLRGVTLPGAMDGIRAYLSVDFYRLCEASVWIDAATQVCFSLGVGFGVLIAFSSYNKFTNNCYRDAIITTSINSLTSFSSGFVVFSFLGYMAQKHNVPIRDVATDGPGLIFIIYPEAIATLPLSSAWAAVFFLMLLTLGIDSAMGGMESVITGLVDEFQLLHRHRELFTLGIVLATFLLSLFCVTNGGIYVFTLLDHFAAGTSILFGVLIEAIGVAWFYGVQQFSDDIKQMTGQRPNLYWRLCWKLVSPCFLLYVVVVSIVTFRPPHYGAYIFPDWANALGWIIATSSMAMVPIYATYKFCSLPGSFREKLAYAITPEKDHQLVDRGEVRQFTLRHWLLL
Chain of recombinant human dopamine transporter expressed in CHO-K1 cells (Q01959 whole entry): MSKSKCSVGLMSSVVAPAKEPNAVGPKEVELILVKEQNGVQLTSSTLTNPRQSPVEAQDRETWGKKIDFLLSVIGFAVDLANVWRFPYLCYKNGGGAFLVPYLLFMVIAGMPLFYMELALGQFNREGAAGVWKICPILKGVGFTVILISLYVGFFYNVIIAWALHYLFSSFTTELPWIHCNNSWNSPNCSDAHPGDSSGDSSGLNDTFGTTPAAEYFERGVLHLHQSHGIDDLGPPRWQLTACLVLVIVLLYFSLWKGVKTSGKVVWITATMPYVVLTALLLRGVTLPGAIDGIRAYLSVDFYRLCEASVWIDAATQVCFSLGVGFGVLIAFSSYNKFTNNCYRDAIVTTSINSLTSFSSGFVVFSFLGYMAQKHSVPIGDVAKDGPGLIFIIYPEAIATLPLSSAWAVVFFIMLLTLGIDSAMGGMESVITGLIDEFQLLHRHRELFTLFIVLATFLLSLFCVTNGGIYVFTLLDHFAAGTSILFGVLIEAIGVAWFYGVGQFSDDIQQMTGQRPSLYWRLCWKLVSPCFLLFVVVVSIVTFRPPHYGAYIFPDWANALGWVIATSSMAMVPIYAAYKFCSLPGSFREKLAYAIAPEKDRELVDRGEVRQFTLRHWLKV
Chain of 5-HT uptake, rat reuptake transporter (synaptosomes from male Wistar rat cortex) (P31652 whole entry): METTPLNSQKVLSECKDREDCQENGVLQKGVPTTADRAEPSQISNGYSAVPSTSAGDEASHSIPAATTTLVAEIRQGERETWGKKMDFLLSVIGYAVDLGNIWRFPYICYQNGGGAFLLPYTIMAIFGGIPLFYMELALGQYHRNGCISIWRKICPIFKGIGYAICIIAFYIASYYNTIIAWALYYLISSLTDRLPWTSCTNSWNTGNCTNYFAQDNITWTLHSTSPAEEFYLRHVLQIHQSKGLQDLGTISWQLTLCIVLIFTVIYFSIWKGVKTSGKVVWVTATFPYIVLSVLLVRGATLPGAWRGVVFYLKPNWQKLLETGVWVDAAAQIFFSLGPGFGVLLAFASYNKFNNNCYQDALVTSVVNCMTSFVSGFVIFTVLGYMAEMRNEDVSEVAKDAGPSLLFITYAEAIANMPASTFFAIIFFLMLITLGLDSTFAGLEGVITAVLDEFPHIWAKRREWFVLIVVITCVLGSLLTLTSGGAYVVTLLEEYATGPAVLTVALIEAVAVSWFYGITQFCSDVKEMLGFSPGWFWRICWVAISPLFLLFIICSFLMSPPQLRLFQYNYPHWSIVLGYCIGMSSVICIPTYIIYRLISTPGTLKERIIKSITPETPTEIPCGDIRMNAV

With `CN(C)CC(c1ccc(O)cc1)C1(O)CCCCC1` (racemic) [Racemic O-desmethylvenlafaxine, O-desmethylvenlafaxine], in assay [1], the “Inhibition of functional reuptake, Human DA (IC50 not given)” value was “— (key: — indicates less than 50% inhibition of functional reuptake at a 10 μM concentration.)”. Moreover, the figures for the IC50 in assay [2] and in assay [3] were 7.5 µM and 1500 nM, respectively.
As for `CN(C)CC(c1ccc(O)cc1)C1(O)CCCCC1` (single isomer, unassigned; (+)) [(+)-O-desmethylvenlafaxine], in assay [1], the “Inhibition of functional reuptake, Human DA (IC50 not given)” value is given as “— (key: — indicates less than 50% inhibition of functional reuptake at a 10 μM concentration.)”. The “Inhibition of functional reuptake, Rat DA (IC50 not given)” value in assay [2] (at a 10 μM concentration) is recorded as “— (— indicates less than 50% inhibition of functional reuptake at a 10 μM concentration.)”. The “Inhibition of functional reuptake, Rat 5-HT (IC50 not given)” value in assay [4] is “— (— indicates less than 50% inhibition of functional reuptake at a 10 μM concentration.)”. Moreover, the concentration for half-maximal inhibition (IC50) in assay [3] is 1700 nM.
`CN(C)CC(c1ccc(O)cc1)C1(O)CCCCC1` (single isomer, unassigned; (-)) [(−)-O-desmethylvenlafaxine]: the concentration for half-maximal inhibition (IC50) in assay [2] stood at 5.7 µM; in assay [3], 430 nM.
